# Where “and” joins values, the source holds several entries; their conditions need not be identical. Identical values can stand only once. Results filed as inconclusive are left out. *1 amine or outer side, *2 acyl side, *3 side chain or, on linkers, in order; H or OH if unused. Where a SMILES comes first, the peptide text is derived from it. Bridges are numbered along the chain shown (N, C = ends). Roman numbers before positions name the chains, in order. [ ]: non-standard residue; d: D form. Actinocin(9to1) = Cc1c2oc3c(C)ccc(C(=O)[*:1])c3nc-2c(C(=O)[*:2])c(N)c1=O; aThr = C[C@H](O)[C@H](N)C(=O)O; NMeV = CN[C@H](C(=O)O)C(C)C; Sar = CNCC(=O)O
# Tested on: CD2F1 mice, Lymphoma 8 ip, survival T/C
# Assay: NCI In Vivo Anticancer Drug Screen. Data for tumor model Lymphoma 8 (intraperitoneal) in CD2F1 (CDF1) mice
# Settings: higher = longer survival
# Procedure: The antitumor activity of compounds was measured in mice bearing transplantable tumors. Survival or tumor size were measured and the results are expressed as the measurement made in the treated group (T) divided by the measurement made in the vehicle treated control group (C). The tumor model used in this assay is Lymphoma 8 (intraperitoneal) in CD2F1 (CDF1) mice
# [1] = endpoint: median survival time, dose: 50.0 mg/kg/injection, schedule: Q01DX005 (ip), vehicle: saline
# [2] = endpoint: median survival time, dose: 60.0 mg/kg/injection, schedule: Q04DX002 (ip), vehicle: saline
compound,measurement,setting,value
O=NN(CCCl)C(=O)NCCCl,T/C,"endpoint: median survival time, dose: 12.5 mg/kg/injection, schedule: Q01DX001 (ip), vehicle: saline",153 % of control
same,T/C,"endpoint: median survival time, dose: 12.5 mg/kg/injection, schedule: Q01DX005 (ip), vehicle: saline",157 % of control
same,T/C,"endpoint: median survival time, dose: 25.0 mg/kg/injection, schedule: Q01DX001 (ip), vehicle: saline",261 % of control
same,T/C,"endpoint: median survival time, dose: 25.0 mg/kg/injection, schedule: Q01DX005 (ip), vehicle: saline",265 % of control
same,T/C,[1],69 % of control
same,T/C,"endpoint: survival time, mean or median, dose: 6.25 mg/kg/injection, schedule: Q01DX010 (ip), vehicle: saline",160 % of control and 165 % of control
same,T/C,"endpoint: survival time, mean or median, dose: 12.5 mg/kg/injection, schedule: Q01DX010 (ip), vehicle: saline",120 % of control
same,T/C,"endpoint: survival time, mean or median, dose: 25.0 mg/kg/injection, schedule: Q01DX010 (ip), vehicle: saline",90 % of control
S=c1nc[nH]c2nc[nH]c12,T/C,"endpoint: median survival time, dose: 60.0 mg/kg/injection, schedule: Q01DX002 (ip), vehicle: saline",96 % of control
same,T/C,[2],107 % of control
same,T/C,"endpoint: median survival time, dose: 90.0 mg/kg/injection, schedule: Q01DX002 (ip), vehicle: saline",93 % of control
same,T/C,"endpoint: median survival time, dose: 90.0 mg/kg/injection, schedule: Q04DX002 (ip), vehicle: saline",107 % of control
same,T/C,"endpoint: median survival time, dose: 135.0 mg/kg/injection, schedule: Q01DX002 (ip), vehicle: saline",103 % of control
CC/C(=C(/CC)c1ccc(O)cc1)c1ccc(O)cc1,T/C,"endpoint: survival time, mean or median, dose: 12.5 mg/kg/injection, schedule: Q01DX010 (sc), vehicle: steriod suspending solution",90 % of control
same,T/C,"endpoint: survival time, mean or median, dose: 25.0 mg/kg/injection, schedule: Q01DX010 (sc), vehicle: steriod suspending solution",90 % of control
same,T/C,"endpoint: survival time, mean or median, dose: 50.0 mg/kg/injection, schedule: Q01DX010 (sc), vehicle: steriod suspending solution",90 % of control and 95 % of control
same,T/C,"endpoint: survival time, mean or median, dose: 100.0 mg/kg/injection, schedule: Q01DX010 (sc), vehicle: steriod suspending solution",90 % of control
COc1cc2c(c3c1c(=O)c1ccccc1n3C)C=CC(C)(C)O2,T/C,"endpoint: median survival time, dose: 12.5 mg/kg/injection, schedule: Q01DX009 (ip), vehicle: Klucel (hydroxypropylcellulose) (HPC)",100 % of control
same,T/C,"endpoint: median survival time, dose: 25.0 mg/kg/injection, schedule: Q01DX009 (ip), vehicle: Klucel (hydroxypropylcellulose) (HPC)",100 % of control
same,T/C,"endpoint: median survival time, dose: 50.0 mg/kg/injection, schedule: Q01DX009 (ip), vehicle: Klucel (hydroxypropylcellulose) (HPC)",107 % of control
same,T/C,"endpoint: median survival time, dose: 100.0 mg/kg/injection, schedule: Q01DX009 (ip), vehicle: Klucel (hydroxypropylcellulose) (HPC)",96 % of control
N=[N+]=CC(=O)OCC(N)C(=O)O (stereo not given),T/C,"endpoint: median survival time, dose: 2.0 mg/kg/injection, schedule: Q14DX016 (ip), vehicle: saline",150 % of control
CC(=O)NC(CCC(=O)C=[N+]=N)C(=O)O (stereo not given),T/C,"endpoint: median survival time, dose: 0.5 mg/kg/injection, schedule: Q01DX002 (ip), vehicle: saline",100 % of control
same,T/C,"endpoint: median survival time, dose: 0.5 mg/kg/injection, schedule: Q04DX002 (ip), vehicle: saline",96 % of control
same,T/C,"endpoint: median survival time, dose: 1.0 mg/kg/injection, schedule: Q01DX002 (ip), vehicle: saline",103 % of control
same,T/C,"endpoint: median survival time, dose: 1.0 mg/kg/injection, schedule: Q04DX002 (ip), vehicle: saline",114 % of control
same,T/C,"endpoint: median survival time, dose: 2.0 mg/kg/injection, schedule: Q01DX002 (ip), vehicle: saline",106 % of control
same,T/C,"endpoint: median survival time, dose: 2.0 mg/kg/injection, schedule: Q04DX002 (ip), vehicle: saline",107 % of control
"Cc1c2oc3c(C)ccc(C(=O)N[C@@H]4C(=O)N[C@H](C(C)C)C(=O)N5CCC[C@H]5C(=O)N(C)CC(=O)N(C)[C@@H](C(C)C)C(=O)O[C@H]4C)c3nc-2c(C(=O)N[C@@H]2C(=O)N[C@H](C(C)C)C(=O)N3CCC[C@H]3C(=O)N(C)CC(=O)N(C)[C@@H](C(C)C)C(=O)O[C@H]2C)c(N)c1=O (I: [aThr][dV]P[Sar][NMeV] / II: [aThr][dV]P[Sar][NMeV]; ester I:1-I:C, II:1-II:C; linker I:N-II:N via Actinocin(9to1))",T/C,"endpoint: median survival time, dose: 0.05 mg/kg/injection, schedule: Q01DX002 (ip), vehicle: saline",103 % of control
same,T/C,"endpoint: median survival time, dose: 0.05 mg/kg/injection, schedule: Q04DX002 (ip), vehicle: saline",100 % of control
same,T/C,"endpoint: median survival time, dose: 0.1 mg/kg/injection, schedule: Q04DX002 (ip), vehicle: saline",92 % of control
same,T/C,"endpoint: median survival time, dose: 0.2 mg/kg/injection, schedule: Q01DX002 (ip), vehicle: saline",106 % of control
same,T/C,"endpoint: median survival time, dose: 0.2 mg/kg/injection, schedule: Q04DX002 (ip), vehicle: saline",100 % of control
Nc1nc(=S)c2ncn(C3OC(CO)C(O)C3O)c2[nH]1 (stereo not given),T/C,"endpoint: survival time, mean or median, dose: 4.0 mg/kg/injection, schedule: Q01DX010 (ip), vehicle: saline",150 % of control
same,T/C,"endpoint: survival time, mean or median, dose: 8.0 mg/kg/injection, schedule: Q01DX010 (ip), vehicle: saline",118 % of control
same,T/C,"endpoint: survival time, mean or median, dose: 16.0 mg/kg/injection, schedule: Q01DX010 (ip), vehicle: saline",86 % of control
N[C@H](C(=O)O)[C@@H]1CC(Cl)=NO1,T/C,"endpoint: median survival time, dose: 0.38 mg/kg/injection, schedule: Q01DX009 (ip), vehicle: saline",105 % of control
same,T/C,"endpoint: median survival time, dose: 0.75 mg/kg/injection, schedule: Q01DX009 (ip), vehicle: saline",115 % of control
same,T/C,"endpoint: median survival time, dose: 1.5 mg/kg/injection, schedule: Q01DX009 (ip), vehicle: saline",118 % of control
NC(=O)c1[nH]nc(C2OC(CO)C(O)C2O)c1O (stereo not given),T/C,"endpoint: median survival time, dose: 2.0 mg/kg/injection, schedule: Q04DX003 (ip), vehicle: saline",103 % of control
same,T/C,"endpoint: median survival time, dose: 4.0 mg/kg/injection, schedule: Q04DX003 (ip), vehicle: saline",91 % of control
same,T/C,"endpoint: median survival time, dose: 8.0 mg/kg/injection, schedule: Q04DX003 (ip), vehicle: saline",123 % of control
same,T/C,"endpoint: median survival time, dose: 16.0 mg/kg/injection, schedule: Q04DX003 (ip), vehicle: saline",75 % of control
same,T/C,"endpoint: median survival time, dose: 32.0 mg/kg/injection, schedule: Q04DX003 (ip), vehicle: saline",53 % of control
CN1C(=O)C=CC1=O,T/C,"endpoint: median survival time, dose: 0.5 mg/kg/injection, schedule: Q01DX009 (ip), vehicle: saline",97 % of control and 102 % of control
same,T/C,"endpoint: median survival time, dose: 1.0 mg/kg/injection, schedule: Q01DX009 (ip), vehicle: saline",102 % of control and 103 % of control
same,T/C,"endpoint: median survival time, dose: 2.0 mg/kg/injection, schedule: Q01DX009 (ip), vehicle: saline",94 % of control and 100 % of control
same,T/C,"endpoint: median survival time, dose: 4.0 mg/kg/injection, schedule: Q01DX009 (ip), vehicle: saline",94 % of control
O=C1C=C(C2OC(CO)C(O)C2O)C(=O)N1 (stereo not given),T/C,"endpoint: median survival time, dose: 2.0 mg/kg/injection, schedule: Q01DX010 (ip), vehicle: saline",92 % of control
same,T/C,"endpoint: median survival time, dose: 4.0 mg/kg/injection, schedule: Q01DX010 (ip), vehicle: saline",92 % of control
same,T/C,"endpoint: median survival time, dose: 8.0 mg/kg/injection, schedule: Q01DX005 (ip), vehicle: saline",75 % of control
same,T/C,"endpoint: median survival time, dose: 8.0 mg/kg/injection, schedule: Q01DX010 (ip), vehicle: saline",100 % of control
same,T/C,"endpoint: median survival time, dose: 16.0 mg/kg/injection, schedule: Q01DX005 (ip), vehicle: saline",43 % of control
same,T/C,"endpoint: median survival time, dose: 32.0 mg/kg/injection, schedule: Q01DX005 (ip), vehicle: saline",17 % of control
NCCC(N)=O,T/C,[1],92 % of control and 94 % of control
same,T/C,"endpoint: median survival time, dose: 100.0 mg/kg/injection, schedule: Q01DX005 (ip), vehicle: saline",92 % of control and 94 % of control
same,T/C,"endpoint: median survival time, dose: 200.0 mg/kg/injection, schedule: Q01DX005 (ip), vehicle: saline",92 % of control and 94 % of control
same,T/C,"endpoint: median survival time, dose: 400.0 mg/kg/injection, schedule: Q01DX005 (ip), vehicle: saline",92 % of control and 94 % of control
Nc1ncn(C2OC(CO)C(O)C2O)c(=O)n1 (stereo not given),T/C,"endpoint: median survival time, dose: 0.75 mg/kg/injection, schedule: Q01DX005 (ip), vehicle: saline",116 % of control
same,T/C,"endpoint: median survival time, dose: 3.0 mg/kg/injection, schedule: Q01DX005 (ip), vehicle: saline",158 % of control
N=[N+]=CC(=O)CCC(NC(=O)C(CCC(=O)C=[N+]=N)NC(=O)CCC(N)C(=O)O)C(=O)O (stereo not given),T/C,"endpoint: median survival time, dose: 0.31 mg/kg/injection, schedule: Q04DX002 (ip), vehicle: saline",111 % of control
same,T/C,"endpoint: median survival time, dose: 0.63 mg/kg/injection, schedule: Q04DX002 (ip), vehicle: saline",107 % of control
same,T/C,"endpoint: median survival time, dose: 1.25 mg/kg/injection, schedule: Q04DX002 (ip), vehicle: saline",115 % of control
same,T/C,"endpoint: median survival time, dose: 2.5 mg/kg/injection, schedule: Q01DX006 (ip), vehicle: saline",121 % of control
same,T/C,"endpoint: median survival time, dose: 10.0 mg/kg/injection, schedule: Q01DX006 (ip), vehicle: saline",121 % of control
same,T/C,"endpoint: median survival time, dose: 10.0 mg/kg/injection, schedule: Q04DX002 (ip), vehicle: saline",169 % of control
same,T/C,"endpoint: median survival time, dose: 20.0 mg/kg/injection, schedule: Q01DX001 (ip), vehicle: saline",107 % of control
same,T/C,"endpoint: median survival time, dose: 20.0 mg/kg/injection, schedule: Q04DX002 (ip), vehicle: saline",153 % of control
same,T/C,"endpoint: median survival time, dose: 40.0 mg/kg/injection, schedule: Q04DX002 (ip), vehicle: saline",180 % of control
same,T/C,"endpoint: median survival time, dose: 40.0 mg/kg/injection, schedule: Q04DX003 (ip), vehicle: saline",169 % of control
same,T/C,"endpoint: median survival time, dose: 60.0 mg/kg/injection, schedule: Q01DX001 (ip), vehicle: saline",107 % of control
same,T/C,[2],180 % of control
same,T/C,"endpoint: median survival time, dose: 60.0 mg/kg/injection, schedule: Q04DX003 (ip), vehicle: saline",176 % of control
same,T/C,"endpoint: median survival time, dose: 80.0 mg/kg/injection, schedule: Q01DX006 (ip), vehicle: saline",171 % of control
same,T/C,"endpoint: median survival time, dose: 80.0 mg/kg/injection, schedule: Q04DX003 (ip), vehicle: saline",188 % of control

# From PubChem BioAssay AID244 (DTP/NCI, 2004)
